Reference: patent US20240228493A1, “LRRK2 INHIBITORS AND USES THEREOF” (NEURON23, ICN., priority 2022, published 2024)

Assays:
[1] = molecular target: T1, wt human LRRK2, catalytic site (Homo sapiens, UniProt Q5S007); assay: TR-FRET LanthaScreen Tb Kinase Activity Assay, LRRK2 inhibition; format: biochemical; settings: 2 nM wt human LRRK2, 400 nM peptide, 38 μM ATP
T1 construct: wt human LRRK2, catalytic site, catalytic site (ThermoFisher/USA); purchased ThermoFisher
Description: The compounds disclosed herein were tested for their inhibitory effect on LRRK2 kinase according to the following procedures.
The protocol for basic TR-FRET LanthaScreen Tb Kinase Activity Assay inhibitor studies were as follows. LanthaScreen Kinase Activity Assays (ThermoFisher/USA) to evaluate inhibitors were performed by addition of 100 nL of test compound in corresponding DMSO dilutions/5 μL of kinase/fluorescein-ERM (LRRKtide) peptide mixture, Compound & kinase were pre-incubated for 15 minutes, then 5 μl of ATP into 384 well small volume plates. After incubation for 120 minutes at room temperature, the detection reagents containing Tb-anti-pLRRKtide antibody were added to monitor phosphorylation level of peptide. Then, after 60 min minutes incubation at room temperature plates were read in Envision. Data analysis of emission ratios was according to LanthaScreen Tb Kinase Activity Assay protocol.
Kinase and assay components were adjusted to final concentrations according to the kit protocol. For LRRK2: 2 nM wt human LRRK2, catalytic site, catalytic site (ThermoFisher/USA), 400 nM peptide, 38 μM ATP in 1× Kinase Buffer A. […]
Kinase and assay components were adjusted to final concentrations according to the kit protocol.

[2] = tested on: Caco-2 cells; assay: Caco-2 bidirectional permeability; format: in vitro ADME; settings: for Caco-2 ER: Efflux Ratio=Papp(BA)/Papp(AB); for Caco-2 A2B (10^−6 cm/s): apical to basolateral; for Caco-2 A2B (10^−6 cm/s) / Caco-2 B2A (10^−6 cm/s): 2 hours, pH 7.4; for Caco-2 B2A (10^−6 cm/s): basolateral to apical
Description: The compounds disclosed herein were tested in vitro on CaCo2 cell penetration according to the following procedures.
Caco-2 cells purchased from ATCC were seeded onto […] (PET) in 96-well Corning Insert plates at 1×10^5 cells/cm^2. The media were refreshed every 4 to 5 days until the 21st to 28th day for confluent cell monolayer formation.
Experiments were run in duplicate using a HBSS transport buffer containing 10 mM HEPES at pH 7.4. The test article TEST COMPOUND was tested bi-directionally at […] concentrations, the control compound digoxin was tested bi-directionally at 10 μM, and nadolol and metoprolol were tested at 2.0 μM in the A to B direction. Final DMSO concentrations were adjusted to less than 1%. The plates were incubated for 2 hours in a CO2 incubator at 37±1° C. with 5% CO2 at saturated humidity without shaking. Following incubation, samples were mixed with acetonitrile containing internal standard and centrifuged at 3200×g for 10 minutes. Then 200 μL of supernatant was taken from all samples. For TEST COMPOUND and digoxin, the supernatant was diluted with 200 μL of ultra-pure water and for nadolol and metoprolol, the supernatant was diluted with 600 μL of ultra-pure water. All samples were analyzed by LC-MS/MS. Concentrations of TEST COMPOUND and control compounds were determined in starting solutions, donor well solutions, and receiver well solutions using peak area ratios (PAR) of analyte to internal standard. After the transport assay, a lucifer yellow rejection assay was run to determine the Caco-2 cell monolayer integrity.
The apparent permeability (Papp), the % recovery and the efflux ratio were calculated as follows:
Papp=(dCr/dt)×Vr/(A×C0) 1.
Efflux Ratio=Papp(BA)/Papp(AB) 3. • Where: • dCr/dt is the slope of the cumulative concentration in the receiver compartment versus time (mM/s). • Vr and Vd is the volume in the receiver and donor compartments (0.075 mL on the apical side, 0.25 mL on the basolateral side), respectively. • A is the surface area of the cell monolayer (0.0804 cm^2). • C0 is the measured donor concentrations (μM) at the beginning of the experiment. • Cd and Cr are the final measured concentrations in the donor and receiver compartments, respectively.

[3] = tested on: human hepatocyte; assay: Human hepatocyte stability, predicted hepatic clearance (h-Hept CL predict); format: in vitro ADME; settings: human hepatocytes, 0.5×10^6 cells/mL, 1 μM, values without asterisk
Description: The compounds disclosed herein were tested in vitro on human hepatocyte for in vitro h-Hept CL predict according to the following procedures. • 1. Compound sock solutions were prepared by dissolving test compound and positive control in dimethyl sulfoxide (DMSO) at a concentration of 10 mM. Stock solutions were then diluted to 100 μM solutions by combining 198 μL of 50% acetonitrile/50% water with 2 μL of the 10 mM stock in separate conical tubes. • 2. Cryopreserved hepatocytes were prepared as follows: Incubation medium (William's E Medium supplemented with GlutaMAX) and hepatocyte thawing medium were placed in a 37° C. water bath and allowed to warm for at least 15 minutes prior to use. Cryopreserved hepatocytes were removed from storage, ensuring that vials remained at cryogenic temperatures until thawed. Cells were thawed by placing the vials in a 37° C. water bath and gently shaking the vials for 2 minutes. After thawing was completed, vials were sprayed with 70% ethanol and transferred to a biosafety cabinet. Hepatocytes were transferred into 50 mL conical tube containing thawing medium using wide-bore pipette tips. Tubes were placed into a centrifuge and spun at 100 g for 10 minutes. Then thawing medium was aspirated and hepatocytes were resuspended in enough incubation medium to yield ˜1.5×10^6 cells/mL. Cells were counted using acridine orange and propidium iodide (AO/PI) staining, and the viable cell density was determined. Cells were diluted with incubation medium to a working cell density of 0.5×10^6 viable cells/mL. • 3. To determine hepatocyte stability, 198 μL of hepatocytes were transferred into each well of a 96-well non-coated plate. Plates were placed in an incubator to allow the hepatocytes to warm for 10 minutes. • 4. The reaction was started by transferring 2 μL of the 100 μM test compound or positive control solution into respective wells of the 96-well non-coated plates. Plates were returned to the incubator until 25 μL aliquots of well contents were sampled at time points of 0, 15, 30, 60, 90 and 120 minutes. The aliquots were then mixed with 6 volumes (150 μL) of acetonitrile containing internal standard, IS (100 nM alprazolam, 200 nM caffeine and 100 nM tolbutamide) to terminate the reaction and vortexed for 5 minutes. After centrifuging the samples for 45 minutes at 3,220 g, aliquots of 100 μL of the supernatant were taken and diluted with 100 μL of ultra-pure water. The mixture was used for LC/MS/MS analysis. All incubations were performed in duplicate.
All calculations were carried out using Microsoft Excel. Peak area ratios (PAR) were determined from extracted ion chromatograms. The in vitro half-life (t1/2) of parent compound was determined by regression analysis of the percent parent disappearance vs. time curve as follows:
Conversion of the in vitro t1/2 (in minutes) into the in vitro intrinsic clearance (in vitro CLint, in μL/min/1×10^6 cells) was done using the following equation (mean of duplicate determinations): […]
The scaled-up intrinsic clearance (CLint, mL/min/kg), predicted hepatic clearance (CLH, mL/min/kg) and hepatic extraction ratio (ER) were calculated using the following equations:
CLint=(0.693/t1/2)*(1/(hepatocyte concentration (0.5*10^6 cells/mL)))*scaling factors (Table (A) Appendix Table 1)
CLHept-predict=(QH*Scaled-up CLint*fub)/(QH+Scaled-up CLint*fub)
ER=CLH/QH • Where: • V=incubation volume (0.2 mL) • N=number of hepatocytes per well (0.1*10^6 cells) • QH=hepatic blood flow (mL/min/kg) (Table (A) Appendix Table 1) • fub=fraction of unbound drug in plasma, assumed to be 1

T1 sequence (Q5S007 1879-2138 limits assumed): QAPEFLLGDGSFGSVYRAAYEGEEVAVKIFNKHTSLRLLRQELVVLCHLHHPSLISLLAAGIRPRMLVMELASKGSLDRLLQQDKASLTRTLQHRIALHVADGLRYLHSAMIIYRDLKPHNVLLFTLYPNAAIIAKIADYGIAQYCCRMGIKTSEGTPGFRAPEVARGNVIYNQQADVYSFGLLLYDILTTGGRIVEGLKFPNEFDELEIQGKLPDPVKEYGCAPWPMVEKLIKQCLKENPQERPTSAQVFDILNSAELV

IC50 [1] | Caco-2 ER [2] | Caco-2 B2A (10^−6 cm/s) [2] | hHep Cl (mL/min/kg) [3] | Compound | Caco-2 A2B (10^−6 cm/s) [2]
1 to 100 nM | L (L (Likely)”: ER≥2.5) | H (H (High permeability)”: A2B (B2A)>5) | L (L (Low Cl)”: Hep Cl (mL/min/kg)<6.3) | COC[C@H]1CN(c2cc3c(cn2)NC(c2c(F)cccc2F)=Nc2c(C)n[nH]c2-3)CCO1 [Example 15, (2R)-4-[8-(2,6-difluorophenyl)-5-methyl-3,4,7,9,12-pentazatricyclo[8.4.0.02,6]tetradeca-1(10),2(6),4,7,11,13-hexaen-13-y1]-2-(methoxymethyl)morpholine] | M (M (Moderate permeability)”: 1≤A2B (B2A)≤5)
< 1 nM | L (L (Likely)”: ER≥2.5) | H (H (High permeability)”: A2B (B2A)>5) | L (L (Low Cl)”: Hep Cl (mL/min/kg)<6.3) | OCc1ccc(F)c(C2=Nc3c(Cl)n[nH]c3-c3cc(N4CCOCC4)ncc3N2)c1F [Example 21, (3-(3-chloro-9-morpholino-1,6-dihydropyrazolo[4,3-d]pyrido[4,3-f][1,3]diazepin-5-yl)-2,4-difluorophenyl)methanol] | L (L (Low permeability)”: A2B (B2A)<1)

The next lines start with the compound.

Compound | IC50 [1] | Caco-2 ER [2] | Caco-2 B2A (10^−6 cm/s) [2] | hHep Cl (mL/min/kg) [3] | Caco-2 A2B (10^−6 cm/s) [2]
COC[C@@H]1CN(c2cc3c(cn2)NC(c2c(F)cccc2F)=Nc2c(C)n[nH]c2-3)CCO1 [Example 16, (2S)-4-[8-(2,6-difluorophenyl)-5-methyl-3,4,7,9,12-pentazatricyclo[8.4.0.02,6]tetradeca-1(10),2(6),4,7,11,13-hexaen-13-y1]-2-(methoxymethyl)morpholine] | 1 to 100 nM | L (L (Likely)”: ER≥2.5) | H (H (High permeability)”: A2B (B2A)>5) | L (L (Low Cl)”: Hep Cl (mL/min/kg)<6.3) | M (M (Moderate permeability)”: 1≤A2B (B2A)≤5)
Cc1n[nH]c2c1N=C(c1c(F)cccc1F)Nc1cnc(N3CCC[C@H](C#N)C3)cc1-2 [Example 19, (3S)-1-[8-(2,6-difluorophenyl)-5-methyl-3,4,7,9,12-pentazatricyclo [8.4.0.02,6]tetradeca-1(10),2(6),4,7,11,13-hexaen-13-yl]piperidine-3-carbonitrile] | 1 to 100 nM | L (L (Likely)”: ER≥2.5) | H (H (High permeability)”: A2B (B2A)>5) | L (L (Low Cl)”: Hep Cl (mL/min/kg)<6.3) | M (M (Moderate permeability)”: 1≤A2B (B2A)≤5)
OCc1cc(F)c(C2=Nc3c(Cl)n[nH]c3-c3cc(N4CCOCC4)ncc3N2)c(F)c1 [Example 22, (4-(3-chloro-9-morpholino-1,6-dihydropyrazolo[4,3-d]pyrido[4,3-f][1,3]diazepin-5-y1)-3,5-difluorophenyl)methanol] | < 1 nM | L (L (Likely)”: ER≥2.5) | H (H (High permeability)”: A2B (B2A)>5) | I (I (Intermediate Cl)”: 6.3≤Hep Cl (mL/min/kg)≤14.7) | L (L (Low permeability)”: A2B (B2A)<1)
Fc1cccc(Cl)c1C1=Nc2c(Cl)n[nH]c2-c2cc(N3CCOCC3)ncc2N1 [Example 24, (4-[5-chloro-8-(2-chloro-6-fluoro-phenyl)-3,4,7,9,12-pentazatricyclo[8.4.0.02,6]tetradeca-1(10),2(6),4,7,11,13-hexaen-13-yl]morpholine)] | < 1 nM | L (L (Likely)”: ER≥2.5) | H (H (High permeability)”: A2B (B2A)>5) | I (I (Intermediate Cl)”: 6.3≤Hep Cl (mL/min/kg)≤14.7) | M (M (Moderate permeability)”: 1≤A2B (B2A)≤5)
[2H]C1([2H])OC([2H])([2H])C([2H])([2H])N(c2cc3c(cn2)NC(c2c(F)cccc2F)=Nc2c(Cl)n[nH]c2-3)C1([2H])[2H] [Example 25, 4-[5-chloro-8-(2,6-difluorophenyl)-3,4,7,9,12-pentazatricyclo[8.4.0.02,6]tetradeca-1(10),2(6),4,7,11,13-hexaen-13-yl]-2,2,3,3,5,5,6,6-octadeuterio-morpholine] | < 1 nM | L (L (Likely)”: ER≥2.5) | H (H (High permeability)”: A2B (B2A)>5) | L (L (Low Cl)”: Hep Cl (mL/min/kg)<6.3) | M (M (Moderate permeability)”: 1≤A2B (B2A)≤5)
Cc1n[nH]c2c1N=C(c1c(F)cccc1F)Nc1cnc(-c3cn[nH]c3)cc1-2 [Example 29, 8-(2,6-difluorophenyl)-5-methyl-13-(1H-pyrazol-4-y1)-3,4,7,9,12-pentazatricyclo[8.4.0.02,6]tetradeca-1(10),2(6),4,7,11,13-hexaene] | < 1 nM | L (L (Likely)”: ER≥2.5) | H (H (High permeability)”: A2B (B2A)>5) | L (L (Low Cl)”: Hep Cl (mL/min/kg)<6.3) | L (L (Low permeability)”: A2B (B2A)<1)
Fc1cccc(F)c1C1=Nc2c(Cl)n[nH]c2-c2cc(-c3ccn(CC(F)F)n3)ncc2N1 [Example 30, (3-chloro-9-(1-(2,2-difluoroethyl)-1H-pyrazol-3-yl)-5-(2,6-difluorophenyl)-1,6-dihydropyrazolo[4,3-d]pyrido[4,3-f][1,3]diazepine)] | < 1 nM | L (L (Likely)”: ER≥2.5) | H (H (High permeability)”: A2B (B2A)>5) | I (I (Intermediate Cl)”: 6.3≤Hep Cl (mL/min/kg)≤14.7) | M (M (Moderate permeability)”: 1≤A2B (B2A)≤5)
